Test results published in the SangsterLogP compilation.

Assay: not given
Conditions: not given

SMILES	logP
Brc1nn[nH]c1Br	2.44
FC(F)(F)c1nc2c(Cl)c(Cl)c(Cl)cc2[nH]1	3.87
FC(F)(F)c1nc2c(Cl)ccc(Cl)c2[nH]1	2.87
FC(F)(F)c1nc2cc(Cl)c(Cl)cc2[nH]1	3.99
FC(F)(F)c1nc2c(Cl)cc(Cl)cc2[nH]1	3.49
CCCCc1ccc2[nH]c(C(F)(F)F)nc2c1	4.27
Cc1c(C)c(Cl)c2[nH]c(C(F)(F)F)nc2c1Cl	3.19
Brc1n[nH]c(Br)n1	2.24
FC(F)(F)c1nc2c(Br)c(Br)c(Br)cc2[nH]1	4.08
FC(F)(F)c1nc2cc(Br)c(Br)cc2[nH]1	4.15
Cc1cc2nc[nH]c2cc1C	2.35
FC(F)(F)c1nc2c(Cl)cccc2[nH]1	2.93
CSc1nc2cc(Cl)ccc2[nH]1	3.22

Further lines, results first:

logP	SMILES
2.68	O=[N+]([O-])c1ccc2[nH]c(C(F)(F)F)nc2c1
3.97	FC(F)(F)c1nc2c(Cl)c(Cl)c(Cl)c(Cl)c2[nH]1
3.57	FC(F)(F)c1nc2cc(Br)ccc2[nH]1
3.08	Brc1nc(Br)c2[nH]c(Br)nc2n1
3.39	FC(F)(F)c1nc2cc(Cl)ccc2[nH]1
1.85	Clc1nc(Cl)c(Cl)[nH]1
3.78	FC(F)(F)c1nc2c(Cl)c(Cl)cc(Cl)c2[nH]1
3.49	FC(F)(F)c1nc2c(Cl)c(Cl)ccc2[nH]1
4.38	CCCCCCCCc1ccc2[nH]c(C(F)(F)F)nc2c1
2.67	FC(F)(F)c1nc2ccccc2[nH]1
4.81	FC(F)(F)c1nc2c(Br)c(Br)c(Br)c(Br)c2[nH]1
2.78	Ic1nc(I)c(I)[nH]1

Assay: from Büchel, K. H., & Draber, W. (1969). Structure-activity relationship of photosynthesis inhibition by NH-acidic pi-excessive heteroaromatics. In H. Metzner (Ed.), Progress in Photosynthesis Research: …
Conditions: pH 7.3

SMILES	logD
FC(F)(F)c1nc2cnccc2[nH]1	0.94
FC(F)(F)c1nc2ncc(Cl)cc2[nH]1	2.46
FC(F)(F)c1nc2nc3ccccc3nc2[nH]1	3.08

The next lines start with the values.

logD	SMILES
5.18	FC(F)(F)c1nc2nc3c(Cl)cc(Cl)cc3nc2[nH]1
3.91	FC(F)(F)c1nc2nc3cc(Cl)ccc3nc2[nH]1
1.38	FC(F)(F)c1nc2ncccc2[nH]1
